In this assay the target is human chemokine receptor CXCR7 (Homo sapiens (Human), UniProt P25106). Nature of the assay: Tango CXCR7-bla U2OS beta-arrestin recruitment assay (beta-lactamase reporter, FRET), antagonism of CXCL12/SDF1-α.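 Note: compounds preincubated 15 min before CXCL12 addition, then 22 h at 37 °C, FRET emission ratio read with CCF4-AM substrate after 2 h.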 The class given is cell-based. The conditions noted are these: antagonistic effect on CXCR7; Tango CXCR7-bla U2OS cells, CXCL12/SDF1-α at its EC80.
human chemokine receptor CXCR7, sequence (P25106 whole entry): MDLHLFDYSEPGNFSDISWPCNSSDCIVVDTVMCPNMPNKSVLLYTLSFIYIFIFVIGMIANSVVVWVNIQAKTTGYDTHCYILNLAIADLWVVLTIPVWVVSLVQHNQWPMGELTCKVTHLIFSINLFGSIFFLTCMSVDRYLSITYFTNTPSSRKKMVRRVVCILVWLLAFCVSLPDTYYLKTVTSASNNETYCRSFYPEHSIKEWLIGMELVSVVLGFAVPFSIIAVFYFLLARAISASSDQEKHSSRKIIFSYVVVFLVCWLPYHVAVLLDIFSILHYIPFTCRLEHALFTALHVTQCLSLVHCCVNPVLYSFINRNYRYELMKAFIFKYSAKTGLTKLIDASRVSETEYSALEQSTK

pIC50: −log10 of the molar value.

Usually pIC50 stands for the IC50 on a negative log10 scale, so that one unit is a factor of ten.

In turn, “(3R*,4R*)-1-Cyclopropylmethyl-4-{[3-(2,4-difluoro-phenyl)-isoxazole-5-carbonyl]-amino}-piperidine-3-carboxylic acid ((1S*,2R*)-2-phenyl-cyclopropyl)-amide and (3R*,4R*)-1-Cyclopropylmethyl-4-{[3-(2,4-difluoro-phenyl)-isoxazole-5-carbonyl]-amino}-piperidine-3-carboxylic acid ((1R*,2S*)-2-phenyl-cyclopropyl)-amide [Example 1.164]” gave a negative logarithm of the IC50 (pIC50) of 6.57.
With “rac-(3R*,4R*)-1-Cyclohexyl-4-{[5-(2-difluoro-phenyl)-oxazole-2-carbonyl]-amino}-piperidine-3-carboxylic acid (1-pyridin-2-yl-cyclopropyl)-amide [Example 3.011]”, the pIC50 is 7.66.

Values taken from patent publication US11306078B2, “Piperidine CXCR7 receptor modulators” (IDORSIA PHARMACEUTICALS LTD., priority 2016, dated 2022).
